Here are results for eleven molecules from ChEMBL document CHEMBL1201862, “PubChem BioAssay data set” (2004).

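Interpolation was linear, between the two tested concentrations surrounding the appropriate level; five concentrations were tested over 48 hours in 96-well plates. The concentration for 50% growth inhibition is given as GI50.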 Activity calls are given as the source filed them. No stated cut-off is given here; in the data, active = GI50 up to about 1.1 µM and inactive = higher.

Among the test systems are A498; ACHN; EKVX; HCT-116; LOX IMVI; M14; MCF7; MDA-MB-435; MOLT-4; NCI-H522; SF-539; SK-MEL-28; SK-MEL-2; SR; T47D; UO-31; 786-0; CAKI-1; OVCAR-4; OVCAR-8.
Common to all, as to assay: inhibition of tumour cell growth, NCI panel, 48 h

For `CCC(=O)NC(Nc1ccc(O)cc1)(C(F)(F)F)C(F)(F)F`, the GI50 is > 100 µM (inactive) with A498; 56 µM (inactive) in the experiment on ACHN; > 100 µM (inactive) with EKVX; 46.3 µM (inactive) with HCT-116; 33.6 µM (inactive) with LOX IMVI; 80.5 µM (inactive) with M14. Besides, the GI50 in the experiment on MCF7 is 46.3 µM (inactive); in the experiment with MDA-MB-435 it was 25.2 µM (inactive); in the experiment on MOLT-4, 42.5 µM (inactive); with NCI-H522 it was 27.4 µM (inactive); in the experiment on SF-539, 96.4 µM (inactive); in the experiment on SK-MEL-28, > 100 µM (inactive). Also, the GI50 was 41.6 µM (inactive) with SK-MEL-2, 36.5 µM (inactive) in the experiment on SR, 49.4 µM (inactive) with T47D and 35.6 µM (inactive) in the experiment on UO-31.
Take `O=c1c2c3c(sc2nc2n1NC=NN2)CCCC3`: the GI50 was 17.6 µM (inactive) in the experiment with 786-0; > 53.6 µM (inactive) with A498; 16.7 µM (inactive) in the experiment with ACHN; 18 µM (inactive) with CAKI-1; 13.3 µM (inactive) in the experiment with EKVX; 17.9 µM (inactive) in the experiment with HCT-116. Further, the GI50 is 2.49 µM (inactive) in the experiment on LOX IMVI; 25.8 µM (inactive) with M14; 13.8 µM (inactive) with MCF7; 12.8 µM (inactive) in the experiment on MDA-MB-435; 0.323 µM (active) in the experiment on MOLT-4; 16.3 µM (inactive) with NCI-H522. For the same molecule, the GI50 was 17.6 µM (inactive) in the experiment with OVCAR-4; 24.7 µM (inactive) with OVCAR-8; 17.4 µM (inactive) with SF-539; 17.7 µM (inactive) in the experiment on SK-MEL-28; 19.4 µM (inactive) with SK-MEL-2; 31.8 µM (inactive) in the experiment on T47D. The GI50 with UO-31 was > 44.7 µM (inactive).
Turning to `CC1(C)C=[N+]([O-])C(C)(C)N1O`, the GI50 in the experiment on 786-0, in the experiment with ACHN, in the experiment with CAKI-1, in the experiment on EKVX, with HCT-116 and with M14 was > 10 µM (inactive) throughout. Also, the GI50 with MCF7, in the experiment with MDA-MB-435, with MOLT-4, with NCI-H522, in the experiment with OVCAR-4 and in the experiment with OVCAR-8 was > 10 µM (inactive) each time. For the same molecule, the GI50 in the experiment on SK-MEL-2, in the experiment with SR, in the experiment on T47D and in the experiment on UO-31 was > 10 µM (inactive) throughout.
Consider `COc1ccc2c(c1OC)OC[C@@H](C1=CC(=O)C=C(O)C1=O)C2`, for which the GI50 in the experiment on 786-0 was 5.38 µM (inactive); in the experiment with A498 it was 15.3 µM (inactive); in the experiment on ACHN it was 4.8 µM (inactive); with EKVX, 12.5 µM (inactive); in the experiment with HCT-116, 4.7 µM (inactive); in the experiment on LOX IMVI it was 3.32 µM (inactive). For the same molecule, the GI50 in the experiment on M14 was 12.4 µM (inactive); with MCF7 it was 9.91 µM (inactive); in the experiment on MDA-MB-435 it was 8.61 µM (inactive); in the experiment on MOLT-4 it was 0.838 µM (active); in the experiment on NCI-H522 it was 2.7 µM (inactive); with OVCAR-4 it was 5.53 µM (inactive). For the same molecule, the GI50 in the experiment on OVCAR-8 is 19.1 µM (inactive); in the experiment on SF-539, 13.5 µM (inactive); with SK-MEL-28, 16.9 µM (inactive); in the experiment on SK-MEL-2 it was 15.3 µM (inactive); with SR, 6.31 µM (inactive); in the experiment with T47D it was 4.25 µM (inactive). In addition, the GI50 in the experiment on UO-31 was 12.6 µM (inactive).
Consider `COC(=O)c1ccc(/C=C2\Cc3ccccc3C2=O)cc1`, for which the GI50 in the experiment on 786-0, in the experiment with ACHN, in the experiment with CAKI-1, in the experiment on EKVX, in the experiment on HCT-116 and with M14 was > 100 µM (inactive) in each case. Besides, the GI50 in the experiment with MCF7, in the experiment with MDA-MB-435, in the experiment on MOLT-4, in the experiment on NCI-H522, in the experiment on OVCAR-4 and in the experiment with OVCAR-8 was > 100 µM (inactive) each time. Further, the GI50 in the experiment with SF-539, in the experiment on SK-MEL-28, in the experiment on SR, in the experiment on T47D and in the experiment on UO-31 was > 100 µM (inactive) throughout.
`CC(=O)OCC1OC(NC(=S)CCSc2nc3ccccc3c(=O)n2-c2ccccc2)C(OC(C)=O)C(OC(C)=O)C1OC(C)=O` (stereo not drawn): the GI50 with 786-0 is 63.2 µM (inactive); in the experiment with ACHN it was 83.4 µM (inactive); with CAKI-1, > 100 µM (inactive); with EKVX it was 57.8 µM (inactive); in the experiment with HCT-116, 73.5 µM (inactive); in the experiment on LOX IMVI, 79.6 µM (inactive). The GI50 in the experiment on M14 was 46.1 µM (inactive); in the experiment with MCF7, > 100 µM (inactive); with MDA-MB-435 it was 52 µM (inactive); in the experiment with MOLT-4 it was 30 µM (inactive); in the experiment with NCI-H522 it was 25.6 µM (inactive); in the experiment with OVCAR-8, > 100 µM (inactive). Also, the GI50 with SF-539 is 1.64 µM (inactive); in the experiment on SK-MEL-28, 59.6 µM (inactive); in the experiment with SK-MEL-2 it was 22.1 µM (inactive); in the experiment on SR it was 34.1 µM (inactive); in the experiment with T47D it was 30.5 µM (inactive); in the experiment on UO-31 it was 42 µM (inactive).
Turning to `O=C(O)C1(Cc2ccc3c(c2)CCC3)Cc2ccccc2C1`, the GI50 is > 100 µM (inactive) in the experiment with 786-0; 36.1 µM (inactive) in the experiment with A498; 53.7 µM (inactive) in the experiment on ACHN; 54.2 µM (inactive) in the experiment with EKVX; 50.4 µM (inactive) in the experiment on HCT-116; 87.1 µM (inactive) in the experiment with LOX IMVI. The GI50 in the experiment with M14 was > 100 µM (inactive); with MCF7, > 100 µM (inactive); with MDA-MB-435, > 100 µM (inactive); in the experiment with MOLT-4, 71.8 µM (inactive); in the experiment with NCI-H522, 42.3 µM (inactive); in the experiment on OVCAR-4, 23.3 µM (inactive). Moreover, the GI50 with OVCAR-8 is 63.7 µM (inactive); with SF-539, > 100 µM (inactive); in the experiment with SK-MEL-28, 60.8 µM (inactive); in the experiment with SK-MEL-2 it was > 100 µM (inactive); in the experiment with SR, > 100 µM (inactive); in the experiment with T47D it was 49.2 µM (inactive). For the same molecule, the GI50 in the experiment on UO-31 is 46.1 µM (inactive).
In the case of `COc1cc(C2SC(=N)Nc3c2c(C)nn3C(=O)c2ccc(Cl)cc2)cc(OC)c1OC` (stereo not drawn), the GI50 with 786-0, in the experiment on ACHN, in the experiment on CAKI-1, in the experiment with EKVX, with HCT-116 and with LOX IMVI was > 10 µM (inactive) in each case. In addition, the GI50 in the experiment on M14, with MCF7, with MDA-MB-435, with MOLT-4, with NCI-H522 and in the experiment on OVCAR-4 was > 10 µM (inactive) each time. Further, the GI50 with OVCAR-8, in the experiment on SF-539, in the experiment on SK-MEL-28, with SK-MEL-2, in the experiment with SR and with T47D was > 10 µM (inactive) throughout.
As for `COc1cc(/C=N/NC(=O)c2c(Cl)c(Cl)c(Cl)c(Cl)c2-c2nc3cc(C(=O)c4ccccc4)ccc3[nH]2)ccc1O`, the GI50 with 786-0 was 37.2 µM (inactive); with ACHN, 60.7 µM (inactive); in the experiment with CAKI-1, 62.2 µM (inactive); with EKVX it was 63.8 µM (inactive); with HCT-116 it was 36.1 µM (inactive); in the experiment on LOX IMVI, 50.9 µM (inactive). Besides, the GI50 with M14 is 34.3 µM (inactive); in the experiment on MCF7 it was 26.5 µM (inactive); in the experiment on MDA-MB-435, 13.8 µM (inactive); with MOLT-4 it was 16.4 µM (inactive); with NCI-H522 it was 22.1 µM (inactive); in the experiment on OVCAR-4, 49.1 µM (inactive). The GI50 is 59.3 µM (inactive) with OVCAR-8; 24.9 µM (inactive) in the experiment on SF-539; 49.2 µM (inactive) in the experiment with SK-MEL-28; 39.3 µM (inactive) in the experiment on SK-MEL-2; 11.5 µM (inactive) in the experiment on SR; 22.6 µM (inactive) in the experiment on T47D. In the experiment with UO-31, the GI50 was 45.6 µM (inactive).
Take `COc1ccc2c(c1OC)OCC(CN(C)C)C2=O` (stereo not drawn): the GI50 in the experiment on 786-0 is 12.6 µM (inactive); with ACHN it was 17.7 µM (inactive); in the experiment with CAKI-1 it was 3.01 µM (inactive); in the experiment on EKVX it was 25.2 µM (inactive); in the experiment on HCT-116, 17.4 µM (inactive); in the experiment on LOX IMVI it was 14.3 µM (inactive). The GI50 with M14 was 17.3 µM (inactive); with MCF7, 8.95 µM (inactive); in the experiment with MDA-MB-435 it was 19.5 µM (inactive); in the experiment with MOLT-4, 2.23 µM (inactive); in the experiment on NCI-H522, 0.187 µM (active); in the experiment on OVCAR-4, 22.9 µM (inactive). Also, the GI50 with OVCAR-8 was 22.1 µM (inactive); in the experiment on SF-539, 20.4 µM (inactive); with SK-MEL-28, 17.4 µM (inactive); in the experiment with SK-MEL-2 it was 16.7 µM (inactive); with SR, 1.87 µM (inactive); in the experiment with T47D, 19.9 µM (inactive). For the same molecule, in the experiment with UO-31, the GI50 was 18.2 µM (inactive).
Consider `Nc1ncc(Cc2ccc3c(c2)OCO3)c(N)n1`, for which the GI50 in the experiment on 786-0, with A498, in the experiment on ACHN, with CAKI-1, with EKVX and in the experiment with HCT-116 was > 100 µM (inactive) in each case. Further, the GI50 with LOX IMVI, in the experiment on M14, in the experiment with MCF7, with MDA-MB-435, in the experiment with MOLT-4 and in the experiment with OVCAR-4 was > 100 µM (inactive) each time. Further, the GI50 in the experiment on OVCAR-8 was > 100 µM (inactive); in the experiment on SF-539, > 100 µM (inactive); in the experiment with SK-MEL-28 it was > 100 µM (inactive); in the experiment on SR, > 100 µM (inactive); with T47D, 91.4 µM (inactive); with UO-31, > 100 µM (inactive).
